From ChEMBL document CHEMBL4043226, “Design, synthesis and biological evaluation of benzamide and phenyltetrazole derivatives with amide and urea linkers as BCRP inhibitors” (Bioorg Med Chem Lett, 2017)

Assays:
[1] = Resistance index, ratio of mitoxantrone IC50 for human H460/MX20 cells to mitoxantrone IC50 for human H460 cells at 10 uM (reference value: 28.66)
[2] = Resistance index, ratio of mitoxantrone IC50 for human H460/MX20 cells to mitoxantrone IC50 for human H460 cells at 3 uM (reference value: 28.66)
[3] = Resistance index, ratio of mitoxantrone IC50 for human H460/MX20 cells to mitoxantrone IC50 for human H460 cells at 1 uM (reference value: 28.66)
[4] = Cytotoxicity against human NCI-H460/MX20 cells after 72 hrs by MTT assay; format: cell-based; conditions: NCI-H460/MX20, 72 h
NCI-H460 = test: Cytotoxicity against human H460 cells after 72 hrs by MTT assay; format: cell-based; conditions: NCI-H460, 72 h
[5] = Inhibition of ABCG2 in human H460/MX20 cells assessed as potentiation of mitoxantrone induced antiproliferative activity by measuring mitoxantrone IC50 at 10 uM preincubated for 2 hrs followed by mitoxantrone addition measured after 72 hrs by MTT assay (reference value: 6.161 +/- 0.172 microM)
[6] = Inhibition of ABCG2 in human H460/MX20 cells assessed as potentiation of mitoxantrone induced antiproliferative activity by measuring mitoxantrone IC50 at 3 uM preincubated for 2 hrs followed by mitoxantrone addition measured after 72 hrs by MTT assay (reference value: 6.161 +/- 0.172 microM)
[7] = Inhibition of ABCG2 in human H460/MX20 cells assessed as potentiation of mitoxantrone induced antiproliferative activity by measuring mitoxantrone IC50 at 1 uM preincubated for 2 hrs followed by mitoxantrone addition measured after 72 hrs by MTT assay (reference value: 6.161 +/- 0.172 microM)
[8] = target: T1, Broad substrate specificity ATP-binding cassette transporter ABCG2 (Homo sapiens, UniProt Q9UNQ0); test: Inhibition of ABCG2 (unknown origin) expressed in high five insect cell membrane vesicles assessed as reduction in BCRP ATPase activity preincubated for 3 mins followed by ATP addition measured for 20 mins
T1 sequence (Q9UNQ0 whole entry): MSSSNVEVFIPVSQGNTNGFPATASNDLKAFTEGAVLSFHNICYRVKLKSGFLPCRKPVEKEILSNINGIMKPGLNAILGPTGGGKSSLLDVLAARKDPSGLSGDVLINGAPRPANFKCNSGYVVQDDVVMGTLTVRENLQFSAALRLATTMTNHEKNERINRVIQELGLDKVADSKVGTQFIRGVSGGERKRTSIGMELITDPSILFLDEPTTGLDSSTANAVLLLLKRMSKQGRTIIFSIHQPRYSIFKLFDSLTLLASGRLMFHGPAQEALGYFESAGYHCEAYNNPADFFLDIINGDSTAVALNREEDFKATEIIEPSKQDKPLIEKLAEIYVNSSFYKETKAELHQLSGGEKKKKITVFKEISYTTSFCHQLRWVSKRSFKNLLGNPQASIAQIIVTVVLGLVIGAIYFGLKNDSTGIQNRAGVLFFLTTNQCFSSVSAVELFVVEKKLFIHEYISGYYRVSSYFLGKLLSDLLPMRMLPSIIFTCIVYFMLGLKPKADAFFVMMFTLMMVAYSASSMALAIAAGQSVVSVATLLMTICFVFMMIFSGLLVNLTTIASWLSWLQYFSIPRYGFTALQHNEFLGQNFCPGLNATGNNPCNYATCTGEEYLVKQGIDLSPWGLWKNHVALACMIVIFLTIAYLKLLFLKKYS

ABCG2 (BCRP) = target: T2, ABCG2 (BCRP) (Homo sapiens, UniProt Q9UNQ0); test: Activation of ABCG2 (unknown origin) expressed in high five insect cell membrane vesicles assessed as induction of basal BCRP ATPase activity at 10 uM preincubated for 3 mins followed by ATP addition measured for 20 mins relative to control; conditions: High Five insect cell membrane vesicles expressing ABCG2, read-out: FC
T2 sequence (Q9UNQ0 whole entry): T1 sequence (Q9UNQ0 whole entry)

[9] = target: T1, Broad substrate specificity ATP-binding cassette transporter ABCG2; test: Inhibition of ABCG2 (unknown origin) expressed in high five insect cell membrane vesicles assessed as reduction in basal BCRP ATPase activity up to 30 uM preincubated for 3 mins followed by ATP addition measured for 20 mins relative to control

Structure (SMILES)	Ratio IC50 [1]	Ratio IC50 [2]	Ratio IC50 [3]	IC50 [4]	IC50 (NCI-H460)	IC50 [5]	IC50 [6]	IC50 [7]	inhibition (INH) [8]	fold induction at 20 min, 10 µM (ABCG2 (BCRP))	fold change (FC) [9]
COc1cccc(-n2nnc(-c3ccccc3NC(=O)c3ccc([N+](=O)[O-])cc3)n2)c1	1.43	1.8	2.72	> 100 µM	> 100 µM	0.307 µM					
COc1ccc(-n2nnc(-c3ccccc3NC(=O)c3ccc([N+](=O)[O-])cc3)n2)cc1	1.76	2.49	2.73	27.4 µM	24.7 µM						
COc1ccc(C(=O)Nc2ccccc2-c2nnn(-c3ccc(OC)cc3)n2)cc1	2.29	2.35	3.47	> 100 µM	> 100 µM						
COc1ccc(-n2nnc(-c3ccccc3NC(=O)Nc3ccc([N+](=O)[O-])cc3)n2)cc1	1.54	2.52	3.34	28.5 µM	21.7 µM						
O=C(Nc1ccc([N+](=O)[O-])cc1)Nc1ccccc1C(=O)Nc1ccc(C(F)(F)F)cc1	2.12	2.81	3.31	> 100 µM	> 100 µM						
COc1cccc(-n2nnc(-c3ccccc3NC(=O)c3ccc(N=[N+]=[N-])cc3)n2)c1	5.89	6.98	7.51	21.5 µM	20.3 µM						
COc1cccc(-n2nnc(-c3ccccc3NC(=O)c3ccccc3[N+](=O)[O-])n2)c1	5.12	6.14	8.74	44.7 µM	38.9 µM		1.32 µM				
COc1cccc(-n2nnc(-c3ccccc3NC(=O)Nc3ccccc3[N+](=O)[O-])n2)c1	4.1	4.55	5.45	> 100 µM	> 100 µM			1.172 µM			
CCCc1ccc(NC(=O)c2ccccc2NC(=O)c2cccc([N+](=O)[O-])c2)cc1	2.38	3.38	3.65	> 100 µM	> 100 µM	0.512 µM	0.727 µM	0.785 µM			
COc1ccc(NC(=O)Nc2ccccc2-c2nnn(-c3ccc(OC)cc3)n2)cc1	1.56	1.78	2.06	57.4 µM	52.5 µM	0.355 µM	0.382 µM				
COc1cccc(-n2nnc(-c3ccccc3NC(=O)Nc3ccc(N=C=S)cc3)n2)c1	2.56	3.1	7.05	> 100 µM	> 100 µM	0.55 µM		1.515 µM			
CCCc1ccc(NC(=O)c2ccccc2NC(=O)c2ccccc2[N+](=O)[O-])cc1	7.7	9.36	11.75	> 100 µM	> 100 µM						
COc1cccc(-n2nnc(-c3ccccc3NC(=O)c3ccc(NC(C)=O)cc3)n2)c1	5.58	6.16	6.34	> 100 µM	> 100 µM						
COc1cccc(-n2nnc(-c3ccccc3NC(=O)Nc3ccc(N)cc3)n2)c1	1.76	2.66	3.9	> 100 µM	> 100 µM		0.571 µM				
CCCc1ccc(NC(=O)c2ccccc2NC(=O)c2ccc(OC)cc2)cc1	7.97	10	13.1	> 100 µM	> 100 µM		2.012 µM	2.526 µM			
COc1cccc(-n2nnc(-c3ccccc3NC(=O)Nc3ccc([N+](=O)[O-])cc3)n2)c1	1.87	2.53	3.87	> 100 µM	> 100 µM			0.832 µM	Dose-dependent effect	1.94	
CCCc1ccc(NC(=O)c2ccccc2NC(=O)Nc2ccccc2[N+](=O)[O-])cc1	5.21	11.92	17.03	> 100 µM	> 100 µM						
COc1cccc(-n2nnc(-c3ccccc3NC(=O)c3ccc(N=C=S)cc3)n2)c1	4.43	4.88	5.68	59 µM	44.7 µM			1.221 µM			
COc1cccc(-n2nnc(-c3ccccc3NC(=O)c3ccc(NC(=O)CBr)cc3)n2)c1	1.32	2.07	2.81	> 100 µM	> 100 µM						
COc1cccc(-n2nnc(-c3ccccc3NC(=O)Nc3ccc(NC(=O)CBr)cc3)n2)c1	2.2	2.71	3.71	> 100 µM	> 100 µM						
CCCc1ccc(NC(=O)c2ccccc2NC(=O)Nc2ccc(OC)cc2)cc1	4.58	10.12	15.68	> 100 µM	> 100 µM						
COc1cccc(-n2nnc(-c3ccccc3NC(=O)c3ccc(N)cc3)n2)c1	1.39	2.28	2.55	> 100 µM	> 100 µM				Dose-dependent effect		0.52
CCCc1ccc(NC(=O)c2ccccc2NC(=O)Nc2cccc([N+](=O)[O-])c2)cc1	1.62	2.33	3.03	> 100 µM	> 100 µM	0.348 µM			Dose-dependent effect	3.55	
CCCc1ccc(C(=O)Nc2ccccc2-c2nnn(-c3cccc(OC)c3)n2)cc1	0.61	0.96	1.65	40.6 µM	27 µM		0.207 µM				
COc1cccc(-n2nnc(-c3ccccc3NC(=O)Nc3ccc(NC(C)=O)cc3)n2)c1	1.51	2.11	2.92	> 100 µM	> 100 µM		0.454 µM				
COc1cccc(-n2nnc(-c3ccccc3NC(=O)Nc3cccc([N+](=O)[O-])c3)n2)c1				> 100 µM	> 100 µM						
COc1cccc(-n2nnc(-c3ccccc3NC(=O)Nc3ccc(N=[N+]=[N-])cc3)n2)c1	3.19	3.21	4.25	> 100 µM	> 100 µM	0.685 µM					
CCCc1ccc(NC(=O)c2ccccc2NC(=O)Nc2ccc(Br)cc2)cc1	4.43	9.87	12.35	> 100 µM	> 100 µM						
COc1cccc(-n2nnc(-c3ccccc3NC(=O)c3cccc([N+](=O)[O-])c3)n2)c1	4.03	6.47	8.38	25.4 µM	19.9 µM		1.39 µM				
COc1ccc2c3c([nH]c2c1)[C@H](C=C(C)C)N1C(=O)[C@@H]2CCCN2C(=O)[C@@H]1C3 [FUMITREMORGIN]	1.49	2.1	2.85			0.321 µM					
